For four molecules, IC50 results are on record in patent US7820623B2 (priority 2006, dated 2010).

For experiment [1], the system named is thapsigargin-induced IFN-g production in human whole blood. It is filed as cell-based.
The subject of experiment [2] is thapsigargin-induced IL-2 production in human whole blood.
The mark [3] stands for this setting: read-out: Analogue Activity (IC50) WB/IFNg.
Setting [4] is: read-out: Analogue Activity (IC50) WB/IL-2.

Like-named read-outs stand apart in the source and are kept apart here. Bridge positions count the residues as written; N and C are the ends. Peptide text beside a SMILES is read from it.

As to `CC[C@H](C)[C@@H]1NC(=O)[C@H](CCCCN)NC(=O)[C@@H](NC(=O)[C@H](CCCCN)NC(=O)[C@@H](NC(=O)[C@H](CC(N)=O)NC(=O)[C@@H](NC(=O)[C@@H](NC(=O)[C@@H](NC(=O)CN)C(C)C)[C@@H](C)CC)[C@@H](C)CC)C(C)C)CSSC[C@@H]2NC(=O)[C@H](CCCCN)NC(=O)CNC(=O)[C@H](Cc3ccccc3)NC(=O)[C@H](CCCNC(=N)N)NC(=O)[C@H](CCSC)NC(=O)CNC(=O)[C@H](C)NC(=O)[C@H](CCCCN)NC(=O)[C@H](CCCCN)NC(=O)[C@@H]3CSSC[C@@H](C(=O)N[C@@H](CCCNC(=N)N)C(=O)N4CCC[C@H]4C(=O)N[C@@H](CCCCN)C(=O)O)NC(=O)[C@H](Cc4c[nH]cn4)NC(=O)[C@H](CSSC[C@H](NC(=O)[C@H](CCC(N)=O)NC(=O)[C@H](CCCNC(=N)N)NC(=O)[C@H](CO)NC1=O)C(=O)N[C@@H](CC(C)C)C(=O)N[C@@H](CCC(=O)O)C(=O)N1CCC[C@H]1C(=O)N3)NC(=O)[C@H](CCCCN)NC(=O)CNC(=O)[C@H](CC(N)=O)NC(=O)[C@H](CCSC)NC2=O` [T36R] (H-GVIINVKCKISRQCLEPCKKAGMRFGKCMNGKCHCRPK-OH; disulfide 8-28, 14-33, 18-35), the IC50 stood at 10.1 nM in experiment [1] (setting [3]) and 9.7 nM in experiment [2] (setting [4]).

`CC[C@H](C)[C@H](NC(=O)[C@H](C)NC(=O)[C@@H](NC(=O)CN)C(C)C)C(=O)N[C@@H](CC(N)=O)C(=O)N[C@H](C(=O)N[C@@H](CCCCN)C(=O)N[C@H]1CSSC[C@@H]2NC(=O)[C@H](CCCCN)NC(=O)CNC(=O)[C@H](Cc3ccccc3)NC(=O)[C@H](CCCNC(=N)N)NC(=O)[C@H](CCSC)NC(=O)CNC(=O)[C@H](C)NC(=O)[C@H](CCCCN)NC(=O)[C@H](CCCCN)NC(=O)[C@@H]3CSSC[C@@H](C(=O)N[C@H](C(=O)N4CCC[C@H]4C(=O)N[C@@H](CCCCN)C(=O)O)[C@@H](C)O)NC(=O)[C@H](Cc4c[nH]cn4)NC(=O)[C@H](CSSC[C@H](NC(=O)[C@H](CCC(N)=O)NC(=O)[C@H](CCCNC(=N)N)NC(=O)[C@H](CO)NC(=O)[C@H]([C@@H](C)CC)NC(=O)[C@H](CCCCN)NC1=O)C(=O)N[C@@H](CC(C)C)C(=O)N[C@@H](CCC(=O)O)C(=O)N1CCC[C@H]1C(=O)N3)NC(=O)[C@H](CCCCN)NC(=O)CNC(=O)[C@H](CC(N)=O)NC(=O)[C@H](CCSC)NC2=O)C(C)C` [I3A] (H-GVAINVKCKISRQCLEPCKKAGMRFGKCMNGKCHCTPK-OH; disulfide 8-28, 14-33, 18-35): the results for the IC50 in experiment [1] (setting [3]) and in experiment [2] (setting [4]) were 0.0992 nM and 0.0883 nM, respectively.

Regarding `CC[C@H](C)[C@@H]1NC(=O)[C@H](CCCCN)NC(=O)[C@@H](NC(=O)[C@H](C)NC(=O)[C@@H](NC(=O)[C@H](CC(N)=O)NC(=O)[C@@H](NC(=O)[C@@H](NC(=O)[C@@H](NC(=O)CN)C(C)C)[C@@H](C)CC)[C@@H](C)CC)C(C)C)CSSC[C@@H]2NC(=O)[C@H](CCCCN)NC(=O)CNC(=O)[C@H](Cc3ccccc3)NC(=O)[C@H](CCCNC(=N)N)NC(=O)[C@H](CCSC)NC(=O)CNC(=O)[C@H](C)NC(=O)[C@H](CCCCN)NC(=O)[C@H](CCCCN)NC(=O)[C@@H]3CSSC[C@@H](C(=O)N[C@H](C(=O)N4CCC[C@H]4C(=O)N[C@@H](CCCCN)C(=O)O)[C@@H](C)O)NC(=O)[C@H](Cc4c[nH]cn4)NC(=O)[C@H](CSSC[C@H](NC(=O)[C@H](CCC(N)=O)NC(=O)[C@H](CCCNC(=N)N)NC(=O)[C@H](CO)NC1=O)C(=O)N[C@@H](CC(C)C)C(=O)N[C@@H](CCC(=O)O)C(=O)N1CCC[C@H]1C(=O)N3)NC(=O)[C@H](CCCCN)NC(=O)CNC(=O)[C@H](CC(N)=O)NC(=O)[C@H](CCSC)NC2=O` [K7A] (H-GVIINVACKISRQCLEPCKKAGMRFGKCMNGKCHCTPK-OH; disulfide 8-28, 14-33, 18-35), the IC50 in experiment [1] (setting [3]) was 0.0591 nM; in experiment [2] (setting [4]), 0.0675 nM.

For the molecule “GVIINVKCKISRQCLAPCKKAGMRFGKCMNGKCHCTPK [Ala-16 (SEQ ID No: 1413)]”, the IC50 in experiment [1] (read-out: Average IC50 IFNg) and in experiment [2] (read-out: Average IC50 IL-2) was 0.101 nM in each case.
